Tests used:
P. aeruginosa ATCC 27853 = experiment: Antimicrobial activity, microtiter broth dilution method; assay type: cell-based, Pseudomonas aeruginosa; conditions: 1 × 10^7 CFU/mL, Mueller–Hinton broth, 24 h at 37 °C, OD 630 nm, concentration equivalent to CT
Experimental: The antimicrobial activity of HA–CT–B12 was tested using the microtiter broth dilution method, as previously reported. P. aeruginosa ATCC 27853 (Museum of Microbiological Cultures, State Research Institute of Highly Pure Biopreparations, St. Petersburg, Russia) was used as the experimental microorganism. Briefly, HA–CT–B12 conjugate stock solutions were prepared by diluting samples in Mueller–Hinton broth to a maximum 2-fold concentration equivalent to CT. Serial dilutions of CT (64 to 0.25 μg/mL) were then plated on Luria-Bertani agar culture plates. The antimicrobial efficacy of the HA–CT–B12 conjugates was confirmed by the absence of P. aeruginosa growth. P. aeruginosa suspension was serially diluted 1:100 in Müller–Hinton broth to obtain a concentration of approximately 1 × 10^7 CFU/mL. Then, 125 µL of the inoculum was added to the wells of the culture plate containing HA–CT–B12 solutions in Müller–Hinton broth. […] The plate was incubated for 24 h at 37 °C and the optical density (OD) was measured at 630 nm using an ELx808™ Absorbance Microplate Reader (BioTek Instruments, Winooski, VT, USA). Relative bacterial growth (%) was calculated as the ratio of OD630 at each concentration of the test samples to OD630 in the control (0 μg/mL). […]

Caco-2 cell monolayer = experiment: Caco-2 cell permeability assay; assay type: in vitro ADME, human
Experimental: The human colon adenocarcinoma cell line Caco-2 was obtained from the Russian Cell Culture Collection (Institute of Cytology, Russian Academy of Sciences, St. Petersburg, Russia). Caco-2 cells were cultured in DMEM medium supplemented with 10% FBS, L-glutamine, and penicillin/streptomycin in 75 cm^2 cell culture flasks (Jet Biofil, Guangzhou, China) at 37 °C in a humidified atmosphere containing 5% CO2 in a CO2 incubator. When the cells reached 60-70% confluence, the cells were sub-cultured into new flasks (1:6 ratio). […] Samples were collected from the bottom chamber and fluorescence intensity was measured using a fluorescence plate reader (excitation 492 nm; emission 520 nm). […] The content of vitamin B12 and the content of the HA-CT-B12 conjugate equivalent to vitamin B12 were determined spectrophotometrically at 360 nm using a calibration curve. […] The Papp was calculated using the following equation [33]:(1) […]0 where Papp is the apparent permeability coefficient (cm/s); dQ/dt -is the permeation rate (μg/s); A is the monolayer area (0.3 sm^2); and C0 is the concentration in the apical chamber at the initial moment of time (μg/mL).

colistin [CT]
Minimum inhibitory concentration (MIC) (P. aeruginosa ATCC 27853): 2 µg/mL | Apparent permeability coefficient (Papp) (Caco-2 cell monolayer; Caco-2): 0.04 ×10⁻⁶ cm/s

cyanocobalamin [vitamin B12]
Apparent permeability coefficient (Papp) (Caco-2 cell monolayer; Caco-2 monolayer, day 21, apical to basolateral, PBS, 2 h with sampling every 30 min, 1 mg CT, 28.5 mg vitamin B12 or 300 mg conjugate in 5 mL PBS, 0.5 mL applied, B12 and conjugate read at 360 nm, mean of n = 3): 5.4 ×10⁻⁶ cm/s
